According to ChEMBL document CHEMBL5390259, “Structure Determination of Kahalalide Analogues Based on Metagenomic Analysis of a Bryopsis sp. Marine Green Alga” (J Nat Prod, 2023):

Experiment: Cytotoxicity against rat 3Y1 cells incubated for 2 days by MTT assay
Type: toxicity, cell-based

Compound: C/C=C1\NC(=O)[C@H](Cc2ccccc2)NC(=O)[C@@H]([C@@H](C)CC)NC(=O)[C@@H]([C@@H](C)CC)NC(=O)[C@H](NC(=O)[C@@H](CC(C)C)NC(=O)[C@H](CCCN)NC(=O)[C@H]2CCCN2C(=O)[C@H](NC(=O)[C@@H](NC(=O)[C@@H](NC(=O)[C@H](NC(=O)CCC)[C@@H](C)O)C(C)C)C(C)C)C(C)C)[C@@H](C)OC(=O)[C@H](C(C)C)NC1=O
- IC50 at 2 days: 10 µM

Compound: C/C=C1\NC(=O)[C@H](Cc2ccccc2)NC(=O)[C@@H]([C@@H](C)CC)NC(=O)[C@@H]([C@@H](C)CC)NC(=O)[C@H](NC(=O)[C@@H](CC(C)C)NC(=O)[C@H](CCCN)NC(=O)[C@H]2CCCN2C(=O)[C@H](NC(=O)[C@@H](NC(=O)[C@@H](NC(=O)[C@H](NC(=O)C=C(C)C)[C@@H](C)O)C(C)C)C(C)C)C(C)C)[C@@H](C)OC(=O)[C@H](C(C)C)NC1=O
- IC50 at 2 days: 7.4 µM
